Assay results reported in patent US20240252638A1, “INDUCER FOR REPROGRAMMING T CELL INTO NK-LIKE CELL AND APPLICATION OF INDUCER” (ZHAOTAI IMMUGENE BIOMEDICINE (HONG KONG) LIMITED, priority 2021, published 2024).

What was measured:
[1] = tested on: K562 cells (human chronic myeloid leukemia cells); assay: In vitro killing detection of reprogrammed T cells (luciferase); assay type: cell-based; details: effector-target ratios 16:1 to 1:4, co-cultured 24 h, vs T cells treated by DMSO
Description: (1) The T cells induced by GSK-3484862, the T cells induced by DAC, the T cells induced by Mocetinostat, the T cells co-induced by GSK-3484862 and Mocetinostat, the T cells co-induced by DAC and Mocetinostat and the T cells treated by DMSO were mixed with 1×10^4 K562 cells (human chronic myeloid leukemia cells) according to different effector-target ratios (16:1, 8:1, 4:1, 2:1, 1:1, 1:2 and 1:4), respectively, and added to a 96-well cell culture plate. Three duplicate wells were set for each group, and a group with the addition of tumor cells alone was set as a positive control. After centrifugation at 250×g for 5 min, the cells were placed in a 5% CO2 incubator at 37° C. and co-cultured for 24 h.
(2) After 24 h, 100 μL/well luciferase substrate (1×) was added to the 96-well cell culture plate, and the cells were resuspended and uniformly mixed. RLU (Relative light units) were immediately measured by a multifunctional microplate reader for 0.1 s. A killing proportion calculation formula of a quantitative killing efficiency assessment method using a luciferase is as follows:
100%×(control well reading-experimental well reading)/control well reading (blank group (without the addition of the cells) reading may be ignored).
In addition, according to the same method, the T cells induced by GSK-3484862, the T cells induced by Tazemetostat, the T cells induced by GSK126, the T cells co-induced by GSK-3484862 and Tazemetostat and the T cells co-induced by GSK-3484862 and GSK-126 were separately used and the T cells treated by DMSO was used as a control to detect killing abilities of the reprogrammed T cells against K562 cells.

[2] = tested on: primary T cells in human umbilical cord blood; assay: Detection of phenotypes of reprogrammed T cells through flow cytometry (NKp30/NKp46 expression); assay type: cell-based; details: for expression rate of NKp30 in CD4 T cells: drug concentrations of Table 1 (DAC 0.2 μM, GSK-3484862 2 μM, Mocetinostat 0.2 μM), DMSO group approximately 7.74%; for expression rate of NKp46 in CD8 T cells: DMSO group approximately 0.26%; for expression rate of NKp30 in CD8 T cells: DMSO group approximately 12.2%; for expression of NKp46 and NKp30 in CD4 and CD8 among induced T cells compared with DMSO: induced by a single inhibitor until Day5; for expression of NKp46 and NKp30 in CD4 and CD8 among induced T cells compared with DMSO / induction of T cells to reprogram into NK-like cells: concentrations of Table 1; for induction of T cells to reprogram into NK-like cells: induced until Day5
Description: In this example, umbilical cord blood mononuclear cells (UCBMCs) were separated from the umbilical cord blood through Ficoll-hypaque (polysucrose-meglumine diatrizoate) density gradient centrifugation, 4×10^7 CD3 positive UCBMCs were taken and cultured overnight with a cell density of 2×10^6 cells/mL, remaining UCBMCs were frozen, and T cells were sorted by the Pan T cell isolation kit and cultured for a period of time to obtain ≥4×10^7 CD3 positive T cells with a viability rate of ≥70% and without contamination by exogenous microorganisms such as bacteria, fungi and mycoplasmas.
(1) T cells activated by TransAct for 36 h were taken and centrifuged at 300 g for 5 min, the T cells were resuspended with an IMDM+5% FBS+1% double antibody (a 100×penicillin-streptomycin mixed solution)+IL2 (300 U), and a T cell density was adjusted to (2−3)×10^5 cells/mL.
(2) Groups of small molecule inhibitor drugs were added to the resuspended T cells, respectively. Half of media were changed every day, and extra new drugs were added according to volumes obtained after the media were changed. A day when the drugs were initially added was denoted as Day0, and when the drugs continued to be added until Day5, the mixtures were centrifuged at 300 g for 5 min, and the media were changed. Then, the cells continued to be cultured with an IMDM+5% FBS+1% double antibody (a 100×penicillin-streptomycin mixed solution).
(1) 200 μL each of the T cells induced by DAC until Day6, the T cells induced by GSK-3484862 until Day 6, the T cells co-induced by DAC and Mocetinostat until Day6, the T cells co-induced by GSK-3484862 and Mocetinostat until Day6 and the untreated T cells were taken and centrifuged at 400 g for 4 min. After supernatant was discarded, 50 μL phosphate buffer (PBS) was added to resuspend the cells. Then, 0.5 μL each of CD3 PE-Cy7, CD4 APC-Cy7, CD8 FITC, NKp30 PE and NKp46 APC were added to each of the mixtures and incubated for 30 min at 4° C. in the dark, 500 μL PBS was added to dilute the antibody and centrifuged at 400 g for 4 min, supernatant was carefully discarded, and 300 μL PBS was added to resuspend the cells, transferred to a flow tube and loaded on a flow cytometer.
(2) Data analysis was performed by BD-flowcyto analysis software, and 10000 cells were collected in each tube. The appearance of a significant increase in NKp-30 and the appearance of an NKp46-positive cell population were used as signs of successful reprogramming, and a percentage of positive T cells was calculated.
In addition, the T cells induced by GSK-3484862 until Day5, the T cells induced by Tazemetostat until Day5, the T cells induced by GSK126 until Day5, the T cells co-induced by Tazemetostat and GSK-3484862 until Day5, the T cells co-induced by GSK-3484862 and GSK126 until Day5 and the untreated T cells were taken and subjected to the same operations, and phenotypes of the reprogrammed T cells were identified through flow cytometry. The results are shown in FIGS. 9A, 9B, 10A, 10B, 11A, 11B, 12A, 12B, 13A, 13B, 14A and 14B.

[3] = tested on: reprogrammed T cells co-cultured with K562; assay: Secretion of cytokines IFN-γ and granzyme B by reprogrammed T cells co-cultured with K562 (ELISA); assay type: cell-based, human; details: co-cultured with K562 for 48 h, supernatant
Description: The T cells induced by DAC, the T cells induced by GSK-3484862, the T cells co-induced by DAC and Mocetinostat, the T cells co-induced by GSK-3484862 and Mocetinostat and the T cells treated by DMSO were co-cultured with human chronic myeloid leukemia cells K562 for 48 h, respectively, and expression levels of cytokines IFN-γ and a granzyme B in supernatant were detected through ELISA.

[4] = T cells induced until Day6, drug concentrations of Table 1

Row | SMILES | in vitro killing of K562 by induced T cells [1] | expression rate of NKp30 in CD4 T cells ([2]; T cells induced until Day6) | expression rate of NKp46 in CD8 T cells [2, 4] | expression rate of NKp30 in CD8 T cells [2, 4] | IFN-γ and granzyme B secreted by induced T cells (immune effect) [3] | expression rate of NKp46 in CD4 T cells [2, 4] | expression of NKp46 and NKp30 in CD4 and CD8 among induced T cells compared with DMSO [2] | induction of T cells to reprogram into NK-like cells [2]
1 | Nc1ccccc1NC(=O)c1ccc(CNc2nccc(-c3cccnc3)n2)cc1 [Mocetinostat] | effectively kill | – | – | – | – | – | – | –
2 | Nc1ncn([C@H]2C[C@H](O)[C@@H](CO)O2)c(=O)n1 [DAC, decitabine] | – | approximately 83.2% | approximately 11.2% | approximately 60.5% | – | – | – | –
3 | CCc1c(C#N)c(SC(C(N)=O)c2ccccc2)nc(N(C)C)c1C#N (stereo not drawn) [GSK-3484862] | effectively kill | approximately 81.4% | approximately 21.4% | approximately 50.8% | produce an immune effect | approximately 5.16% | significantly expressed | can induce the T cells to reprogram into NK-like cells
4 | CC[C@H](C)n1cc(C)c2c(C(=O)NCc3c(C)cc(C)[nH]c3=O)cc(-c3ccc(N4CCNCC4)nc3)cc21 [GSK126] | effectively kill | – | – | – | – | – | significantly expressed | can induce the T cells to reprogram into NK-like cells
